Assays:
[1] = system: HeLa galactose cells; assay: Cell growth and proliferation assay of HeLa galactose cells (crystal violet); format: cell-based; conditions: Homo sapiens, HeLa, 72 h, 72 hours incubation, crystal violet staining, absorbance at 590 nm
Procedure, shortened: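 HeLa cells adapted stepwise over three weeks to glucose-free galactose medium plus 10 mM galactose, seeded at 2000 cells/well and treated 72 h with compounds (0.001% DMSO) at 37° C. Growth read by crystal violet staining, dye solubilized and absorbance at 590 nm; IC50 from concentration-response curves.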

[2] = system: Oxygen consumption (mitochondrial function); assay: Oxygen consumption assay (MitoXpress probe); format: cell-based; conditions: 5 h, MitoXpress probe signal, kinetic analysis at 37° C. for 5 hours, compared to untreated cells
Description: Oxygen consumption is one of the most informative and direct measures of mitochondrial function and can be measured, for example, by using the MitoXpress® assay (Luxcel MX-2001, Luxcel Biosciences). The MitoXpress® probe is one of a family of phosphorescent oxygen sensitive probes. The assay exploits the ability of oxygen to quench the excited state of the MitoXpress® probe. As the test material respires (i.e. the cells), oxygen is depleted in the surrounding solution/environment, which increases the probe phosphorescence signal. Changes in oxygen consumption reflecting changes in mitochondrial activity are seen as changes in the MitoXpress® probe signal over time.
Cells were seeded in 96 well black plates with transparent bottoms (Greiner Bio-One cat. no. 655090) at a density of 50′000 cells/well in a final volume of 100 μL. After 24 hours the incubation media was removed and 150 μL of fresh media containing inhibitors at different concentrations was added to each well. Then, 10 μL of MitoXpress® and 150 μL mineral oil were added per well. Reading from the top of the plate, kinetic analysis was performed at 37° C. for 5 hours using a Synergy 4 plate reader (BioTek) and Time-resolved Fluoresence (TRF) wavelengths of 380/11 nm excitation and 650/20 nm emission or 665/40 emission (30 microsecond delay time, 100 microsecond integration time, gain or sensitivity settings set at either medium or high). IC50s were calculated as the concentration that inhibits 50% of the phosphorescent oxygen sensitive probe signal (MitoXpress®) as compared to untreated cells.

Row | IC50 [1] [µM] | SMILES | IC50 [2] [µM]
1 | 0.021 | COC1CN(Cc2ccc(Cl)cc2F)CCN(C(=O)Nc2nc(C)ns2)C1 (stereo not drawn) [Example 160, 4-[(4-chloro-2-fluoro-phenyl)methyl]-6-methoxy-N-(3-methyl-1,2,4-thiadiazol-5-yl)-1,4-diazepane-1-carboxamide] | 0.065
2 | 0.009 | Cc1cc(NC(=O)N2CCC(=Cc3c(F)cc(N(C)C)cc3F)CC2)sn1 [Example 148, 4-[[4-(dimethylamino)-2,6-difluoro-phenyl]methylene]-N-(3-methylisothiazol-5-yl)piperidine-1-carboxamide] | 0.016
3 | 0.019 | Cc1nsc(NC(=O)N2CCC(=Cc3c(F)cc(N(C)CC#N)cc3F)CC2)n1 [Example 164, 4-[[4-[cyanomethyl(methyl)amino]-2,6-difluoro-phenyl]methylene]-N-(3-methyl-1,2,4-thiadiazol-5-yl)piperidine-1-carboxamide] | 0.016
4 | 0.096 | Nc1nsc(NC(=O)N2CCC(Cc3ccc(Cl)cc3F)CC2)n1 [Example 108, N-(3-amino-1,2,4-thiadiazol-5-yl)-4-[(4-chloro-2-fluoro-phenyl)methyl]piperidine-1-carboxamide] | 0.132
5 | 0.034 | Cc1nsc(NC(=O)N2CCC(C(=O)c3ccc(Cl)cc3)CC2)n1 [Example 74, 4-(4-chlorobenzoyl)-N-(3-methyl-1,2,4-thiadiazol-5-yl)piperidine-1-carboxamide] | 0.051
6 | 0.032 | Cc1nsc(NC(=O)N2CCCC(Cc3ccc(C(F)(F)F)cc3F)CC2)n1 (stereo not drawn) [Example 120, 4-[[2-fluoro-4-(trifluoromethyl)phenyl]methyl]-N-(3-methyl-1,2,4-thiadiazol-5-yl)azepane-1-carboxamide] | 0.054
7 | 0.08 | COc1ccc(CC2CCN(C(=O)Nc3nc(C)ns3)CC2)cc1 [Example 3] | < 0.1
8 | 0.036 | Cc1nsc(NC(=O)N2CCC(Cc3ccc(Cl)cc3F)CC2)n1 [Example 9] | < 0.1
9 | 0.115 | Cc1nsc(NC(=O)N2CC/C(=C/c3ccc(Cl)cc3F)C(C)C2)n1 (stereo not drawn) [Example 83, (4Z)-4-[(4-chloro-2-fluoro-phenyl)methylene]-3-methyl-N-(3-methyl-1,2,4-thiadiazol-5-yl)piperidine-1-carboxamide] | 0.329
10 | 0.054 | Cc1nsc(NC(=O)N2CCC(C(=O)c3ccc(F)cc3F)CC2)n1 [Example 75, 4-(2,4-difluorobenzoyl)-N-(3-methyl-1,2,4-thiadiazol-5-yl)piperidine-1-carboxamide] | 0.059
11 | 0.033 | Cc1cc(NC(=O)N2CCC(=Cc3ccc(Cl)cc3F)CC2)ccn1 [Example 128] | 0.168
12 | 0.019 | Cc1nsc(NC(=O)N2CCCC(=Cc3c(F)cc(Cl)cc3F)CC2)n1 [Example 114] | 0.065
13 | 0.037 | Cc1cc(NC(=O)N2CCC(=Cc3c(F)cc(N(C)C)cc3F)CC2)ccn1 [Example 154] | 0.192
14 | 0.279 | O=C(Nc1nc(CCN2CCOCC2)ns1)N1CCC(=Cc2ccc(Cl)cc2F)CC1 [Example 79, 4-[(4-chloro-2-fluoro-phenyl)methylene]-N-[3-(2-morpholinoethyl)-1,2,4-thiadiazol-5-yl]piperidine-1-carboxamide] | 0.378
15 | 0.055 | CNc1ccc(C=C2CCN(C(=O)Nc3nc(C)ns3)CC2)c(F)c1 [Example 109] | 0.103
16 | 0.011 | CCc1nsc(NC(=O)N2CCC(=Cc3c(F)cc(N(C)C)cc3F)CC2)n1 [Example 149, 4-[[4-(dimethylamino)-2,6-difluoro-phenyl]methylene]-N-(3-ethyl-1,2,4-thiadiazol-5-yl)piperidine-1-carboxamide] | 0.013
17 | 0.02 | Cc1nsc(NC(=O)N2CCC(=Cc3c(F)cc(C#N)cc3F)CC2)n1 [Example 95, 4-[(4-cyano-2,6-difluoro-phenyl)methylene]-N-(3-methyl-1,2,4-thiadiazol-5-yl)piperidine-1-carboxamide] | 0.03
18 | 0.057 | Cc1nsc(NC(=O)N2CCC(Cc3ncc(Cl)cc3F)CC2)n1 [Example 62] | 0.122
19 | 0.207 | Cc1nsc(NC(=O)N2CCC(=Cc3ccc(Cl)cc3Cl)CC2)n1 [Example 21] | 0.208
20 | 0.047 | Cc1nsc(NC(=O)N2CCC(Cc3ccc(N(C)C)cc3F)CC2)n1 [Example 46] | 0.129

Row | IC50 [1] [µM] | SMILES | IC50 [2] [µM]
21 | 0.028 | Cc1nsc(NC(=O)N2CCC(=Cc3c(F)cc(N(C)CCO)cc3F)CC2)n1 [Example 158, 4-[[2,6-difluoro-4-[2-hydroxyethyl(methyl)amino]phenyl]methylene]-N-(3-methyl-1,2,4-thiadiazol-5-yl)piperidine-1-carboxamide] | 0.04
22 | 0.043 | Cc1cc(NC(=O)N2CCC(C(=O)c3ccc(C(F)(F)F)cc3F)CC2)ccn1 [Example 143] | 0.103
23 | 0.032 | Cc1nsc(NC(=O)N2CCC(Cc3c(F)cc(C(F)(F)F)cc3F)CC2)n1 [Example 40, 4-[[2,6-difluoro-4-(trifluoromethyl)phenyl]methyl]-N-(3-methyl-1,2,4-thiadiazol-5-yl)piperidine-1-carboxamide] | 0.048
24 | 0.228 | Cc1nsc(NC(=O)N2CCC(=Cc3ccc(CO)cc3F)CC2)n1 [Example 89, 4-[[2-fluoro-4-(hydroxymethyl)phenyl]methylene]-N-(3-methyl-1,2,4-thiadiazol-5-yl)piperidine-1-carboxamide] | 0.352
25 | 0.034 | Cc1cc(NC(=O)N2CCC(Cc3ccc(Cl)cc3F)CC2)ccn1 [Example 72, 4-[(4-chloro-2-fluoro-phenyl)methyl]-N-(2-methyl-4-pyridyl)piperidine-1-carboxamide] | 0.068
26 | 0.021 | Cc1cc(NC(=O)N2CCC(=Cc3c(F)cc(C(F)(F)F)cc3F)CC2)ccn1 [Example 138, 4-[[2,6-difluoro-4-(trifluoromethyl)phenyl]methylene]-N-(2-methyl-4-pyridyl)piperidine-1-carboxamide] | 0.147
27 | 0.637 | Cc1ccc(OC2CCN(C(=O)Nc3nc(C)ns3)CC2)cc1 [Example 18] | 0.515
28 | 0.077 | Cc1nsc(NC(=O)N2CCCC(=Cc3ccc(C#N)cc3F)CC2)n1 [Example 117] | 0.145
29 | 0.142 | Cc1ccc(SC2CCN(C(=O)Nc3nc(C)ns3)CC2)cc1 [Example 7, N-(3-methyl-1,2,4-thiadiazol-5-yl)-4-(p-tolylsulfanyl)piperidine-1-carboxamide] | 0.5
30 | 0.02 | Cc1cc(NC(=O)N2CCC(Cc3ccc(Cl)cc3F)CC2)sn1 [Example 63, 4-[(4-chloro-2-fluoro-phenyl)methyl]-N-(3-methylisothiazol-5-yl)piperidine-1-carboxamide] | 0.056
31 | 0.146 | Cc1nsc(NC(=O)N2CCC(Cc3ccc(Cl)cc3C)CC2)n1 [Example 14] | 0.2
32 | 0.089 | Cc1nsc(NC(=O)N2CCC(Cc3cc(C)c(Cl)cc3F)CC2)n1 [Example 64] | 0.187
33 | 0.025 | Cc1nsc(NC(=O)N2CCC(=Cc3ccc(N(C)C)cc3F)CC2)n1 [Example 47, 4-[[4-(dimethylamino)-2-fluoro-phenyl]methylene]-N-(3-methyl-1,2,4-thiadiazol-5-yl)piperidine-1-carboxamide] | 0.067
34 | 0.054 | COCc1cc(NC(=O)N2CCC(=Cc3ccc(Cl)cc3F)CC2)ccn1 [Example 176] | 0.133
35 | 0.208 | O=C(Nc1nc(CCO)ns1)N1CCC(Cc2ccc(Cl)cc2F)CC1 [Example 96] | 0.361
36 | 0.021 | Cc1nsc(NC(=O)N2CC/C(=C\c3ccc(Cl)cc3F)CC2C)n1 (stereo not drawn) [Example 86, (4E)-4-[(4-chloro-2-fluoro-phenyl)methylene]-2-methyl-N-(3-methyl-1,2,4-thiadiazol-5-yl)piperidine-1-carboxamide] | 0.061
37 | 0.329 | Cc1nsc(NC(=O)N2CCC(Cc3ccc(OC(F)(F)F)cc3)CC2)n1 [Example 53] | 0.89
38 | 0.266 | Cc1nsc(NC(=O)N2CCC(Oc3ccc(Cl)cc3)CC2)n1 [Example 19, 4-(4-chlorophenoxy)-N-(3-methyl-1,2,4-thiadiazol-5-yl)piperidine-1-carboxamide] | 0.488
39 | 0.035 | Cc1nsc(NC(=O)N2CCC(Cc3c(F)cc(N(C)C)cc3F)CC2)n1 [Example 113, 4-[[4-(dimethylamino)-2,6-difluoro-phenyl]methyl]-N-(3-methyl-1,2,4-thiadiazol-5-yl)piperidine-1-carboxamide] | 0.052
